Results reported in patent publication US20250340561A1, “QUINAZOLINE COMPOUND FOR INDUCING DEGRADATION OF G12D MUTANT KRAS PROTEIN” (Astellas Pharma Inc., priority 2021, published 2025).

Target: T1, KRAS G12D (Homo sapiens, UniProt P01116, G12D)
T1 construct: host or cells: AsPC-1 human pancreatic cancer cells
Experiment: Test Example 1-2: KRAS degradation action in AsPC-1, Cell ELISA
Format: cell-based
Settings: AsPC-1 cells, overnight treatment, corrected with β-actin, 0% = 10 μM Example No. 26 (Example No. 8 for Example Nos. 74 and 75)
Experimental: Test Example 1-2: Evaluation of KRAS Degradation Action on Human G12D Mutant KRAS-Positive Pancreatic Cancer Line AsPC-1
The KRAS degradation action of test compounds was evaluated by measuring the expression levels of KRAS G12D by Cell ELISA.
[…] As for the cell culture conditions, a RPMI 1640 medium containing 10% fetal bovine serum was used in the presence of 5% CO2 at 37° C. The next day, the test compounds (10 points having final concentrations in the range of 10 μM to 0.3 nM), the compound of Example No. 26 (Example No. 8 for Example Nos. 74 and 75) of a final concentration of 10 μM as a positive control and DMSO, which was the solvent for the test compounds, as a negative control were diluted 500-fold with a fresh medium and were added at 20 μL per well. The cells were cultured overnight.
The next day, the culture supernatant was removed, and 4% paraformaldehyde phosphate buffer (from FUJIFILM Wako Pure Chemical Corporation) was added at 20 μL per well. The plate was allowed to stand for 30 minutes at room temperature to thus immobilize the cells. Then, the supernatant was removed, and 0.1% Triton X-100 (from Amersham Biosciences)-containing PBS was added at 20 μL per well. After allowing to stand for 10 minutes at room temperature, the supernatant was removed. PBS was added at 25 μL per well, and the supernatant was removed to thus wash each well. The washing was performed twice in total. Next, the supernatant was removed, and 0.5% sodium dodecyl sulfate (SDS; from Invitrogen)-containing PBS was added at 20 μL per well. After allowing to stand at room temperature for 10 minutes, the supernatant was removed by centrifugation (using a centrifugal dehydrator machine, the supernatant was removed by the same method hereinafter). PBS was added at 25 μL per well, and the supernatant was removed to thus wash each well. The washing was performed twice in total. The supernatant was removed by centrifugation, and a blocking solution (Intercept Blocking Buffer) was added at 20 μL per well. After allowing to stand for 30 minutes at room temperature, the supernatant was removed by centrifugation, and a solution obtained by diluting an anti-Ras (G12D Mutant Specific) antibody and an anti-3-actin antibody 1,000-fold with a blocking solution was added at 20 μL per well as a primary antibody. The plate was allowed to stand overnight at 4° C.
The next day, the plate was centrifuged to remove the supernatant. PBS was added at […], and the supernatant was removed to thus wash each well. The washing was performed twice in total. The supernatant was removed by centrifugation, and a solution obtained by diluting Donkey anti-Mouse IgG H&L (TRDye 680RD) (from Li—COR Biosciences) and Goat anti-Rabbit IgG H&L (IRDye 800CW) (from Li—COR Biosciences) 1,000-fold with a blocking solution was added at 20 μL per well as a secondary antibody. After allowing to stand for 1 hour at room temperature, the supernatant was removed. PBS was added at 25 μL per well, and the supernatant was removed to thus wash each well. The washing was performed twice in total. After removing the supernatant by centrifuging the plate, the plate was dried as it was with air at room temperature for 2 hours or more, and the 700-nm and 800-nm fluorescent signals were measured with Aerius (from LI-COR Biosciences).
With the signaling value at the time of addition of DMSO corrected with the signaling value of β-actin taken as 100% and with the signaling value at the time of addition of 10 μM of the compound of Example No. 26 taken as 0%, the 50% degradation values (DC50) of the amounts of KRAS were calculated by Sigmoid-Emax model nonlinear regression analysis. The molecular weights of the test compounds were calculated as the molecular weights of the trihydrochloride for Example No. 30, the tetrahydrochloride for Example No. 46 and the free forms forming no salt for the remaining Example Nos. The results for some test compounds of the formula (I) are shown in Table 2.

T1 sequence (P01116 1-188 isoform P01116-2 G12D): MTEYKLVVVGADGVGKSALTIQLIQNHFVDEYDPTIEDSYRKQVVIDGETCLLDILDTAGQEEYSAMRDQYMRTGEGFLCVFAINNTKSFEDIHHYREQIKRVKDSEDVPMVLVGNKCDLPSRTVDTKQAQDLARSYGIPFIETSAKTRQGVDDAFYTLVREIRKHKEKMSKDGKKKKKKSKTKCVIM

| Compound | DC50 |
| --- | --- |
| Cc1ncsc1-c1ccc([C@H](CO)NC(=O)[C@@H]2C[C@@H](O)CN2C(=O)[C@H](C(C)C)n2cc(-c3ccc(COc4c(-c5c(C)c(F)cc6[nH]ncc56)c(C5CC5)cc5c(N6C[C@@H]7C[C@H]6CN7)nc(OC[C@H]6CCOC6)nc45)cc3)nn2)cc1 [Example 52] | 10 nM |
| Cc1ncsc1-c1ccc([C@H](CO)NC(=O)[C@@H]2C[C@@H](O)CN2C(=O)[C@H](C(C)C)n2cc(-c3ccc(COc4c(-c5c(C)c(F)cc6[nH]ncc56)c(C5CC5)cc5c(N6C[C@@H]7C[C@H]6CN7)nc(OC[C@@H]6CCOC6)nc45)cc3)nn2)cc1 [Example 53] | 8 nM |
| COC[C@H](C)Oc1nc(N2C[C@@H]3C[C@H]2CN3)c2cc(C3CC3)c(-c3c(C)c(F)cc4[nH]ncc34)c(OCc3ccc(-c4cn([C@H](C(=O)N5C[C@H](O)C[C@H]5C(=O)N[C@@H](CO)c5ccc(-c6scnc6C)cc5)C(C)C)nn4)cc3)c2n1 [Example 54] | 8 nM |
| COC[C@H](CN1CCOCC1)Oc1nc(N2C[C@@H]3C[C@H]2CN3)c2cc(C3CC3)c(-c3c(C)c(F)cc4[nH]ncc34)c(OCc3ccc(-c4cn([C@H](C(=O)N5C[C@H](O)C[C@H]5C(=O)N[C@@H](CO)c5ccc(-c6scnc6C)cc5)C(C)C)nn4)cc3)c2n1 [Example 55] | 24 nM |
| Cc1ncsc1-c1ccc([C@H](CO)NC(=O)[C@@H]2C[C@@H](O)CN2C(=O)[C@H](C(C)C)n2cc(-c3ccc(COc4c(-c5c(C)c(F)cc6[nH]ncc56)c(C5CC5)cc5c(N6C[C@@H]7C[C@H]6CN7)nc(OC[C@@H]6CCCN6C)nc45)cc3)nn2)cc1 [Example 57] | 134 nM |
| CO[C@@H](C)COc1nc(N2C[C@@H]3C[C@H]2CN3)c2cc(C3CC3)c(-c3c(C)c(F)cc4[nH]ncc34)c(OCc3ccc(-c4cn([C@H](C(=O)N5C[C@H](O)C[C@H]5C(=O)N[C@@H](CO)c5ccc(F)cc5)C(C)C)nn4)cc3)c2n1 [Example 58] | 37 nM |
| CO[C@@H](C)COc1nc(N2C[C@@H]3C[C@H]2CN3)c2cc(C3CC3)c(-c3c(C)c(F)cc4[nH]ncc34)c(OCc3ccc(-c4cn([C@H](C(=O)N5C[C@H](O)C[C@H]5C(=O)N[C@@H](CO)c5ccc(N6CCOC6=O)cc5)C(C)C)nn4)cc3)c2n1 [Example 59] | 45 nM |
| Cc1ncsc1-c1ccc([C@H](CO)NC(=O)[C@@H]2C[C@@H](O)CN2C(=O)[C@H](C(C)C)n2cc(-c3ccc(COc4c(-c5c(C)c(F)cc6[nH]ncc56)c(C5CC5)cc5c(N6C[C@@H]7C[C@H]6CN7)nc(OC[C@H]6CCCN6C)nc45)cc3)nn2)cc1 [Example 60] | 102 nM |
| Cc1ncsc1-c1ccc([C@H](CO)NC(=O)[C@@H]2C[C@@H](O)CN2C(=O)[C@H](C(C)C)n2cc(-c3ccc(COc4c(-c5c(C)c(F)cc6[nH]ncc56)c(C5CC5)cc5c(N6C[C@@H]7C[C@H]6CN7)nc(OCC6(CO)CC6)nc45)cc3)nn2)cc1 [Example 61] | 21 nM |
| COCC1(COc2nc(N3C[C@@H]4C[C@H]3CN4)c3cc(C4CC4)c(-c4c(C)c(F)cc5[nH]ncc45)c(OCc4ccc(-c5cn([C@H](C(=O)N6C[C@H](O)C[C@H]6C(=O)N[C@@H](CO)c6ccc(-c7scnc7C)cc6)C(C)C)nn5)cc4)c3n2)CC1 [Example 62] | 10 nM |
| Cc1c(F)cc2[nH]ncc2c1-c1c(C2CC2)cc2c(N3C[C@@H]4C[C@H]3CN4)nc(OC3CCOCC3)nc2c1OCc1ccc(-c2cn([C@H](C(=O)N3C[C@H](O)C[C@H]3C(=O)N[C@@H](CO)c3cccc(F)c3)C(C)C)nn2)cc1 [Example 63] | 70 nM |
| Cc1ncsc1-c1ccc([C@H](CO)NC(=O)[C@@H]2C[C@@H](O)CN2C(=O)[C@H](C(C)C)n2cc(-c3ccc(COc4c(-c5c(C)c(F)cc6[nH]ncc56)c(C5CC5)cc5c(N6C[C@@H]7C[C@H]6CN7)nc(OC[C@H](C)N6CCCC6)nc45)cc3)nn2)cc1 [Example 64] | 48 nM |
| Cc1ncsc1-c1ccc([C@H](CO)NC(=O)[C@@H]2C[C@@H](O)CN2C(=O)[C@H](C(C)C)n2cc(-c3ccc(COc4c(-c5c(C)c(F)cc6[nH]ncc56)c(C5CC5)cc5c(N6C[C@@H]7C[C@H]6CN7)nc(OC[C@H](C)N6CCOCC6)nc45)cc3)nn2)cc1 [Example 65] | 14 nM |
| Cc1ncsc1-c1ccc([C@H](CO)NC(=O)[C@@H]2C[C@@H](O)CN2C(=O)[C@H](C(C)C)n2cc(-c3ccc(COc4c(-c5c(C)c(F)cc6[nH]ncc56)c(C5CC5)cc5c(N6C[C@@H]7C[C@H]6CN7)nc(NCCO)nc45)cc3)nn2)cc1 [Example 66] | 250 nM |
| Cc1c(F)cc2[nH]ncc2c1-c1c(C2CC2)cc2c(N3C[C@@H]4C[C@H]3CN4)nc(OC3CCOCC3)nc2c1OCc1ccc(-c2cn([C@H](C(=O)N3C[C@H](O)C[C@H]3C(=O)N[C@@H](CO)c3cccc(S(C)(=O)=O)c3)C(C)C)nn2)cc1 [Example 67] | 840 nM |
| Cc1ncsc1-c1ccc([C@@H](CO)NC(=O)[C@@H]2C[C@@H](O)CN2C(=O)[C@H](C(C)C)n2cc(-c3ccc(COc4c(-c5c(C)c(F)cc6[nH]ncc56)c(C5CC5)cc5c(N6C[C@@H]7C[C@H]6CN7)nc(OC6CCOCC6)nc45)cc3)nn2)cc1 [Example 68] | 1390 nM |
| Cc1c(F)cc2[nH]ncc2c1-c1c(C2CC2)cc2c(N3C[C@@H]4C[C@H]3CN4)nc(OC3CCOCC3)nc2c1OCc1ccc(-c2cn([C@H](C(=O)N3C[C@H](O)C[C@H]3C(=O)N[C@@H](CO)c3ccc(-n4ccnc4C)cc3)C(C)C)nn2)cc1 [Example 69] | 31 nM |
| CCn1nccc1-c1ccc([C@H](CO)NC(=O)[C@@H]2C[C@@H](O)CN2C(=O)[C@H](C(C)C)n2cc(-c3ccc(COc4c(-c5c(C)c(F)cc6[nH]ncc56)c(C5CC5)cc5c(N6C[C@@H]7C[C@H]6CN7)nc(OC[C@H](C)OC)nc45)cc3)nn2)cc1 [Example 70] | 14 nM |
| CO[C@@H](C)COc1nc(N2C[C@@H]3C[C@H]2CN3)c2cc(C3CC3)c(-c3c(C)c(F)cc4[nH]ncc34)c(OCc3ccc(-c4cn([C@H](C(=O)N5C[C@H](O)C[C@H]5C(=O)N[C@@H](CO)c5ccc(-n6ccnc6C)cc5)C(C)C)nn4)cc3)c2n1 [Example 71] | 35 nM |
| CO[C@@H](C)COc1nc(N2C[C@@H]3C[C@H]2CN3)c2cc(C3CC3)c(-c3c(C)c(F)cc4[nH]ncc34)c(OCc3ccc(-c4cn([C@H](C(=O)N5C[C@H](O)C[C@H]5C(=O)N[C@@H](CO)c5ccc(-c6ocnc6C)cc5)C(C)C)nn4)cc3)c2n1 [Example 72] | 16 nM |
| Cc1ncsc1-c1ccc([C@H](CO)NC(=O)[C@@H]2C[C@@H](O)CN2C(=O)[C@H](C2CC2)n2cc(-c3ccc(COc4c(-c5c(C)c(F)cc6[nH]ncc56)c(C5CC5)cc5c(N6C[C@@H]7C[C@H]6CN7)nc(OC6CCOCC6)nc45)cc3)nn2)cc1 [Example 73] | 134 nM |
